In patent publication US20230167071A1, “COMPOUNDS WITH ANTIMALARIAL ACTIVITY” (UNIVERSITY OF PUERTO RICO, priority 2019, published 2023):

Legend:
mouse erythrocytes = assay: Red blood cell lysis assay; format: cell-based; details: mouse erythrocytes 1% hematocrit, 24 hours, 0.2-100× fold EC50
From the text: Materials and methods. Random-bred Swiss albino CD-1 female mice (Charles River Laboratories, Wilmington, Mass., USA) from 6-8 weeks old were used for the study. All mice procedures were approved by the Institutional Animal Care and Use Committee under the protocol number 2480108 at the AAALAC accredited University of Puerto Rico-Medical Sciences Campus Animal Resources Center. The mice work was done in strict accordance with the “Guide for the Care and Use of Laboratory Animals” (National-Research-Council, Current Edition) and regulations of the PHS Policy on Humane Care and Use of Laboratory Animals. Mice were acclimated for 1 week before initiation of experiments.
Compounds were analyzed at 10 serial dilutions using fresh mouse erythrocytes at 1% hematocrit in Dulbecco's PBS (Gibco®) in V-bottom microplates (Corning® 96 well TC-treated microplate). The plates were incubated for 24 hours at 37° C. followed by centrifugation at 2,000 rpm for 5 min, and 50 μl of supernatant was transferred to a fresh flat-bottom microplate (BD Falcon®). The amount of hemoglobin release in the supernatant was determined using the QuantiChrom™ Hemoglobin Assay Kit (DIHB-250; BioAssay Systems) by measuring the absorbance at 400 nm following the manufacturer's instructions. Saponin at 100 μg/ml was used as a positive control for 100% cell lysis, blood (1% hematocrit) with Dulbecco's Phosphate-Buffered Saline (DPBS) as a negative control for no cell lysis, and DPBS as a blank. Compounds were tested in three independent experiments in triplicate each.

PbGST = assay: GST inhibition (CDNB/GSH) in crude P. berghei protein extract; format: biochemical, Plasmodium berghei; details: crude P. berghei protein extract, 0, 1, 10, and 50 μM
Experimental: Materials and methods. […] Parasite extracts were prepared and the pellets containing proteins were resuspended in buffer (3.5 mM MgCl2, 110 mM KCl, 40 mM NaCl, 20 mM HEPES, 6 mM EDTA, pH 7.4) with protease inhibitors (0.01 mg of leupeptin A, 0.001 mg of pepstatin A, 0.35 mg of PMSF). The parasite pellets were lysed by three freeze/thaw cycles (liquid nitrogen and 37° C. water bath) and protein content was determined using Bio-Rad DC Protein Assay. […] . The reaction was initiated by the addition of 1 mM GSH and the formation of S-(2,4-dinitrophenyl)glutathione was monitored spectrophotometrically at 340 nm (ε340 nm=0.0096 μM^−1cm^−1) using the SpectraMax M3 Microplate Reader (Molecular Devices).

human placenta GST = molecular target: T1, human placenta GST (Homo sapiens, UniProt P09211); assay: GST inhibition, human placenta GST; format: biochemical; details: human placenta GST, 0, 1, 10, and 50 μM
T1 construct: from tissue; host or cells: human placenta

[1] = tested on: P. falciparum multidrug-resistant Dd2 clone B2; assay: In vitro susceptibility of P. falciparum, flow cytometry after 72 hours; format: cell-based, Plasmodium falciparum; details: P. falciparum Dd2 clone B2, 72 hours; read-out: EC50 (parasite growth)
Experimental: After 72 hours, parasite growth was assessed using flow cytometry on an Accuri C6 cytometer with parasites stained with SYBR green I and MitoTracker Deep Red. Compound CB-27 was tested in six independent experiments with technical replicates. The percentage of parasite growth was curve fitted against log-transformed drug concentrations and the EC50 was calculated using GraphPad Prism 6 software.

T1 sequence (P09211 2-210 limits assumed): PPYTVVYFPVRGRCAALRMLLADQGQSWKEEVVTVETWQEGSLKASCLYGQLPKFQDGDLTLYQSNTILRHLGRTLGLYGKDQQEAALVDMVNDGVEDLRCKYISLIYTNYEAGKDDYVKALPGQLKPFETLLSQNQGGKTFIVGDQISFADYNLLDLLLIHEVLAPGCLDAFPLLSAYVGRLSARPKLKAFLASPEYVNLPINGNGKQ

O=C(NN=Cc1c(O)ccc2ccccc12)c1nc(-c2ccccc2)cc(-c2ccccc2)n1 [CB-27]
hemolysis (lytic activity) (mouse erythrocytes): did not hemolyze erythrocytes | inhibition of PbGST activity (PbGST): concentration-dependent inhibition | inhibition of human GST activity (human placenta GST): does not inhibit | EC50 [1]: 958 nM

COc1cccc(/C=N/NC(=O)c2nc(-c3ccccc3)cc(-c3ccccc3)n2)c1O [CB-41]
hemolysis (lytic activity) (mouse erythrocytes): did not hemolyze erythrocytes

O=C(N/N=C/c1cc(Br)ccc1O)/C(=C/C=C/c1ccccc1)NC(=O)c1ccccc1 [CB-50]
hemolysis (lytic activity) (mouse erythrocytes): did not hemolyze erythrocytes

O=C(N/N=C/c1ccccc1O)c1cc(-c2ccccc2)nc2ccccc12 [CB-53]
hemolysis (lytic activity) (mouse erythrocytes): did not hemolyze erythrocytes

COc1cccc(C=NNC(=O)c2cc(-c3ccccc3)nc3ccccc23)c1O [CB-58]
hemolysis (lytic activity) (mouse erythrocytes): did not hemolyze erythrocytes

O=C(Nc1cc(Cl)ccc1O)c1cc2nc(-c3ccccc3)cc(-c3ccccc3)n2n1 [CB-59]
hemolysis (lytic activity) (mouse erythrocytes): did not hemolyze erythrocytes

O=C(N/N=C/c1c(O)ccc2ccccc12)c1cc([N+](=O)[O-])cc([N+](=O)[O-])c1 [CB-61]
hemolysis (lytic activity) (mouse erythrocytes): did not hemolyze erythrocytes
